Tested on: Genes belonging to other category
Assay: DNA chip mRNA expression in yeast, genes belonging to other category (Table 9)
Format: cell-based, Saccharomyces cerevisiae S288C
How it was run: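 Ratios compare mRNA levels in stressed and control S. cerevisiae. Each toxicant was applied for two hours to log-phase cultures at 25° C. at a sub-lethal, growth-inhibiting level; fluorescent cDNA (Cy3- or Cy5-dUTP) was hybridized to a genome-wide yeast chip for over 12 h at 65° C.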

SMILES: Cl[C@H]1[C@H](Cl)[C@@H](Cl)[C@@H](Cl)[C@H](Cl)[C@H]1Cl [(7), γ-hexachlorocyclohexane]
- The level of expressed mRNA in the presence of chemical substance/The level of expressed mRNA in the absence of chemical substance (yeast gene YAR010C): 1.9
- The level of expressed mRNA in the presence of chemical substance/The level of expressed mRNA in the absence of chemical substance (yeast gene YBL005W-A): 1.4
- The level of expressed mRNA in the presence of chemical substance/The level of expressed mRNA in the absence of chemical substance (yeast gene YBL041W): 1.6
- The level of expressed mRNA in the presence of chemical substance/The level of expressed mRNA in the absence of chemical substance (yeast gene YBL043W): 1.5
- The level of expressed mRNA in the presence of chemical substance/The level of expressed mRNA in the absence of chemical substance (yeast gene YBL078C): 3.1
- The level of expressed mRNA in the presence of chemical substance/The level of expressed mRNA in the absence of chemical substance (yeast gene YBR214W): 1.1
- The level of expressed mRNA in the presence of chemical substance/The level of expressed mRNA in the absence of chemical substance (yeast gene YCL020W): 1.5
- The level of expressed mRNA in the presence of chemical substance/The level of expressed mRNA in the absence of chemical substance (yeast gene YCL027W): 1.0
- The level of expressed mRNA in the presence of chemical substance/The level of expressed mRNA in the absence of chemical substance (yeast gene YCR004C): 1.4
- The level of expressed mRNA in the presence of chemical substance/The level of expressed mRNA in the absence of chemical substance (yeast gene YCR071C): 1.4
- The level of expressed mRNA in the presence of chemical substance/The level of expressed mRNA in the absence of chemical substance (yeast gene YCR088W): 1.2
- The level of expressed mRNA in the presence of chemical substance/The level of expressed mRNA in the absence of chemical substance (yeast gene YDL008W): 2.0
- The level of expressed mRNA in the presence of chemical substance/The level of expressed mRNA in the absence of chemical substance (yeast gene YDL238C): 1.4
- The level of expressed mRNA in the presence of chemical substance/The level of expressed mRNA in the absence of chemical substance (yeast gene YDR055W): 1.5
- The level of expressed mRNA in the presence of chemical substance/The level of expressed mRNA in the absence of chemical substance (yeast gene YDR084C): 0.9
- The level of expressed mRNA in the presence of chemical substance/The level of expressed mRNA in the absence of chemical substance (yeast gene YDR085C): 4.1
- The level of expressed mRNA in the presence of chemical substance/The level of expressed mRNA in the absence of chemical substance (yeast gene YDR104C): 1.0
- The level of expressed mRNA in the presence of chemical substance/The level of expressed mRNA in the absence of chemical substance (yeast gene YDR115W): 1.6
- The level of expressed mRNA in the presence of chemical substance/The level of expressed mRNA in the absence of chemical substance (yeast gene YDR259C): 2.8
- The level of expressed mRNA in the presence of chemical substance/The level of expressed mRNA in the absence of chemical substance (yeast gene YDR315C): 1.4
- The level of expressed mRNA in the presence of chemical substance/The level of expressed mRNA in the absence of chemical substance (yeast gene YDR358W): 2.8
- The level of expressed mRNA in the presence of chemical substance/The level of expressed mRNA in the absence of chemical substance (yeast gene YDR388W): 1.1
- The level of expressed mRNA in the presence of chemical substance/The level of expressed mRNA in the absence of chemical substance (yeast gene YDR432W): 0.5
- The level of expressed mRNA in the presence of chemical substance/The level of expressed mRNA in the absence of chemical substance (yeast gene YDR481C): 0.7
- The level of expressed mRNA in the presence of chemical substance/The level of expressed mRNA in the absence of chemical substance (yeast gene YDR510W): 1.6
- The level of expressed mRNA in the presence of chemical substance/The level of expressed mRNA in the absence of chemical substance (yeast gene YEL042W): 0.5
- The level of expressed mRNA in the presence of chemical substance/The level of expressed mRNA in the absence of chemical substance (yeast gene YEL066W): 1.8
- The level of expressed mRNA in the presence of chemical substance/The level of expressed mRNA in the absence of chemical substance (yeast gene YER039C): 1.3
- The level of expressed mRNA in the presence of chemical substance/The level of expressed mRNA in the absence of chemical substance (yeast gene YER107C): 1.0
- The level of expressed mRNA in the presence of chemical substance/The level of expressed mRNA in the absence of chemical substance (yeast gene YER130C): 1.5
- The level of expressed mRNA in the presence of chemical substance/The level of expressed mRNA in the absence of chemical substance (yeast gene YFL022C): 0.3
- The level of expressed mRNA in the presence of chemical substance/The level of expressed mRNA in the absence of chemical substance (yeast gene YFL028C): 2.0
- The level of expressed mRNA in the presence of chemical substance/The level of expressed mRNA in the absence of chemical substance (yeast gene YFL043C): 1.8
- The level of expressed mRNA in the presence of chemical substance/The level of expressed mRNA in the absence of chemical substance (yeast gene YGL158W): 1.3
- The level of expressed mRNA in the presence of chemical substance/The level of expressed mRNA in the absence of chemical substance (yeast gene YGL229C): 2.2
- The level of expressed mRNA in the presence of chemical substance/The level of expressed mRNA in the absence of chemical substance (yeast gene YGR136W): 1.5
- The level of expressed mRNA in the presence of chemical substance/The level of expressed mRNA in the absence of chemical substance (yeast gene YGR189C): 0.6
- The level of expressed mRNA in the presence of chemical substance/The level of expressed mRNA in the absence of chemical substance (yeast gene YGR213C): 7.0
- The level of expressed mRNA in the presence of chemical substance/The level of expressed mRNA in the absence of chemical substance (yeast gene YGR257C): 2.4
- The level of expressed mRNA in the presence of chemical substance/The level of expressed mRNA in the absence of chemical substance (yeast gene YHR004C): 1.5
- The level of expressed mRNA in the presence of chemical substance/The level of expressed mRNA in the absence of chemical substance (yeast gene YHR071W): 1.0
- The level of expressed mRNA in the presence of chemical substance/The level of expressed mRNA in the absence of chemical substance (yeast gene YHR139C): 1.5
- The level of expressed mRNA in the presence of chemical substance/The level of expressed mRNA in the absence of chemical substance (yeast gene YHR142W): 0.9
- The level of expressed mRNA in the presence of chemical substance/The level of expressed mRNA in the absence of chemical substance (yeast gene YIL123W): 0.5
- The level of expressed mRNA in the presence of chemical substance/The level of expressed mRNA in the absence of chemical substance (yeast gene YIL140W): 0.5
- The level of expressed mRNA in the presence of chemical substance/The level of expressed mRNA in the absence of chemical substance (yeast gene YJL089W): 1.1
- The level of expressed mRNA in the presence of chemical substance/The level of expressed mRNA in the absence of chemical substance (yeast gene YJL116C): 0.8
- The level of expressed mRNA in the presence of chemical substance/The level of expressed mRNA in the absence of chemical substance (yeast gene YJR004C): 0.4
- The level of expressed mRNA in the presence of chemical substance/The level of expressed mRNA in the absence of chemical substance (yeast gene YJR086W): 1.7
- The level of expressed mRNA in the presence of chemical substance/The level of expressed mRNA in the absence of chemical substance (yeast gene YKL008C): 1.4
